Earlier results as cited in patent US20090162858A1, “Orthogonal chemical inducer of dimerization” (priority 2007, published 2009).

System: wild type Saccrharomyces cerevisiae
Conditions: [Game, 1975]

Row | Compound | growth of wild type yeast
1 | COc1cc(Cc2cnc(N)nc2N)cc(OC)c1OC [Trimethoprim, 2,4-diamino-5-(3,4,5-trimethoxybenzyl)pyrimidine] | does not
2 | CN(Cc1cnc2nc(N)nc(N)c2n1)c1ccc(C(=O)N[C@@H](CCC(=O)O)C(=O)O)cc1 [Methotrexate] | inhibits growth
